The values below come from patent publication US20260109695A1, “PEROXIREDOXIN 3 INHIBITORS AND METHODS OF USE FOR TREATING CANCER” (WAKE FOREST UNIVERSITY HEALTH SCIENCES, priority 2022, published 2026).

One series is described as follows: Solubility Assay. The format is physicochemical. Particulars: 20 mM HEPES, 100 mM NaCl, pH 7.5, 18-24 hours at ambient temperature. As to the method:
A 20 mM stock solution was made for each compound in DMSO. To measure solubility, 0.03-0.05 mL of the stock was added to 0.27 mL 20 mM HEPES, 100 mM NaCl, pH 7.5. The solution was mixed and rotated 18-24 hours at ambient temperature. The next day, solutions were centrifuged for 10 min at 20,000×g at 24° C. to remove insoluble, solid material. Next, 100 μL of the supernatant containing the soluble compound was added to 900 μL DMSO and High Performance Liquid Chromatography was performed as described in Table 1 and either HPLC gradient 1 (Table 2) for HPLC gradient 2 (Table 3). For each analog, a 200 μM standard and a 20 μM standard were prepared and run in parallel (standards were dissolved completely in 100% DMSO). The amount of compound in the experimental sample was calculated by comparing the area under the curve for compound peak to the area for the closest standard and correcting for dilution.

The next series relates to 578 cancer cells lines. The settings on record: of 578 cancer cells lines tested; cited from earlier work.
For series [1], the system named is Enterococcus hirae (ATCC #10541). Briefly: Antimicrobial Activity Assay. It is filed as cell-based. As to the method:
The overnight growth was then diluted into growth media to make a single solution of E. hirae with a final optical density at 600 nm=0.02 AU. A 20 mM stock solution of Thiostrepton in DMSO was made and used to make multiple dilutions of TS in DMSO. Each TS dilution (0.1 mL) was then added to a test tube containing 10 mL of the diluted E. hirae and grown at 37° C. overnight while shaking at 180 rpm. The next morning, each tube was visually inspected to determine if the cells grew. Final concentrations tested were 0.120, 0.090, 0.075, 0.060, 0.045, 0.030, and 0.015 μM TS. […] Three replicates were made on three separate days (n=9). […] For TS analogs, the dilute E. hirae was treated with 20 µM final concentration of each analog (three replicates each). […] DMSO was used as a positive control (complete cell growth) and 20 µM thiostrepton was used as a negative control.

Series [2] concerns human SK-OV-3 ovarian cancer cells. Briefly: Cellular Activity Assay (cytotoxicity, crystal violet). The settings on record: SK-OV-3 cells, 48 hr treatment. The format is cell-based. The source says:
(§1) To test the activity of compounds, two complimentary assays were used as described below. The Biochemical PRX3 Inhibition Assay tests the ability of each compound to crosslink PRX3 in a simple, in vitro system. In the Cellular Activity Assay, we are testing the ability of compounds to kill SK-OV-3 ovarian cancer cells.
The Cellular Activity Assay measures the EC50 of each compound in human SK-OV-3 ovarian cancer cells TS to be taken into the cell, transported to the mitochondria, and crosslink PRX3.
The cytotoxicity of compounds was measured as described in Nelson et al. (2021) Antioxidants (Basel) 10, 150; Cunniff et al. (2015) PloS one 10, e0127310; and Newick et al. (2012) PloS one 7, e39404. SK-OV-3 is an adherent, epithelial, adenocarcenoma cell line obtained from ATCC (ref #: HTB-77). SK-OV-3 cells are resistant to the commonly used chemotherapeutics, cis-platinum and doxorubicin. For this PRX3 crosslinking assay, SK-OV-3 cells were plated in a 96-well plate. After 24 h recovery, the cells were treated for 48 hr with multiple concentrations of each compound ranging from 0.1-100 μM.
Cells were washed with PBS to remove dead cells and the remaining live cells were fixed with 3.0% formaldehyde and stained with 0.1% crystal violet. The amount of crystal violet was determined by reading the absorbance at 540 nm (crystal violet dye dissolved in 100% methanol) using a plate reader. The signal for crystal violet dye is proportional to the biomass of remaining live cells. GraphPad Prism9 software was used to calculate the effective inhibitory concentration (EC50) of test compounds. Results for each compound, are normalized to the amount of cells in control wells treated with the equivalent concentration of DMSO (negative control). TS or Compound B were included in each set of assays as a positive control.

A further series deals with T1, purified human PRX3 (Homo sapiens, UniProt P30048).
T1 construct: made in house
T1 sequence (P30048 62-256): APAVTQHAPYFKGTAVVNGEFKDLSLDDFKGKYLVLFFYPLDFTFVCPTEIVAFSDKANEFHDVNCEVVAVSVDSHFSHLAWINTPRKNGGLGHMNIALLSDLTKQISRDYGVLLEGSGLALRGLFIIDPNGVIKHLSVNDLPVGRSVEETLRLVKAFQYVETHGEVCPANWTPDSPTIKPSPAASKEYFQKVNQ
Description: Biochemical PRX3 Inhibition Assay (crosslink by SDS-PAGE, mono-adduct by MALDI-TOF MS). Particulars: 1-2 hr at 37° C. As to the method:
as §1
This assay tests the ability of each compound to form a covalent adduct with PRX3. The assay is performed as described in Nelson et al. (2021) Antioxidants (Basel) 10, 150; and Cunniff et al. (2015) PloS one 10, e0127310, and follows the appearance of non-reducible PRX3 crosslinks by SDS PAGE gel electrophoresis and follows the appearance of single PRX3 adducts by mass spectrometry. For this assay, purified human PRX3, hydrogen peroxide (the PRX3 substrate) and all the components required to enable PRX3 to catalytically cycle (thioredoxin-thioredoxin reductase-NAPDH system) are included (details below).
The biochemical PRX3 Inhibition assay contains 100 µM PRX3, 50 µM human TRX2, […] mouse thioredoxin reductase, and a NADPH regenerating system composed of 3.2 mM glucose 6-phosphate, 3.2 U/ml glucose 6-phosphate dehydrogenase and 0.4 mM NADPH. Samples are incubated for 1-2 hr at 37° C. with either 0.2 mM TS (positive control), compounds or an equivalent volume of DMSO (negative control). During this incubation, hydrogen peroxide is added to induce turnover of PRX3. Reactions are stopped by the addition of a buffer containing 100 mM dithiolthreitol (to break disulfide bonds) and SDS (detergent to denature proteins). NADPH, Glucose 6-Phosphate, and glucose 6-phosphate dehydrogenase were purchased from Sigma Aldrich. PRX3, thioredoxin, and thioredoxin reductase were all purified to >98% purity in the Lowther laboratory according to protocols referenced in Nelson et al. (2021) Antioxidants (Basel) 10, 150; and Cunniff et al. (2015) PloS one 10, e0127310.
To measure the amount of PRX3 crosslink, proteins in the reaction were separated by SDS-polyacrlyamide gel electrophoresis and stained for total protein using GelCode Blue (Life Technologies). The amount of unmodified PRX3 and TS-PRX3 crosslink was measured by densiometric analysis of the signal for the PRX3 band running at the MW of a PRX3 crosslink (−46 kDa) compared to the PRX3 signal at the MW of the un-modified PRX3 (˜23 kD).
To measure covalent adduct formation on a single PRX3 monomer, each reaction was exchanged into a mass spectrometry compatible buffer containing 40 mM ammonium citrate, pH 8.3 made in HPLC water. Sample was mixed 1:1 with a matrix solution containing 30 mg/mL sinapinic acid in 70% (vol/vol) acetonitrile, 0.2% formic acid and spotted to onto the sample plate. PRX3 mass was measured by MALDI-TOF MS analysis on a Bruker Daltonics MALDI-TOF MS spectrometer. Spectra were analyzed in FLEXAnalysis Software. The intensity of the reduced PRX3 peak (SH) and intensity of the analog adduct peak was determined and corrected for background signal at the adduct peak in the DMSO control. The fraction of single analog adduct in the monomer peak was determined by dividing the intensity of the adduct peak by the summed intensity of the SH and adduct peaks.

Setting [3] is: E. hirae, overnight at 37° C., n=9.

In brackets after ≈: the same amount, converted by molar mass.

Regarding `C=C(NC(=O)C(=C)NC(=O)c1csc(C2=N[C@@H]3c4csc(n4)[C@H]4NC(=O)c5csc(n5)[C@H]([C@](C)(O)[C@@H](C)O)NC(=O)[C@H]5CSC(=N5)/C(=C/C)NC(=O)[C@H]([C@@H](C)O)NC(=O)c5csc(n5)[C@]3(CC2)NC(=O)[C@H](C)NC(=O)C(=C)NC(=O)[C@H](C)NC(=O)[C@H]([C@@H](C)CC)N[C@@H]2C=Cc3c([C@H](C)O)cc(nc3[C@H]2O)C(=O)O[C@@H]4C)n1)C(N)=O` [Thiostrepton, reference compound], the solubility result in the series “Solubility Assay” is “+ (<0.1 mM)”. Moreover, the “Number of tumor cells lines with meaningful efficacy” value in the series on 578 cancer cells lines is given as 403. For the same compound, in series [1] (setting [3]), the “TS concentrations at which complete growth was observed” value is ≤ 0.030 µM and the “TS concentrations at which no growth was observed” value was ≥ 0.045 µM. Besides, the MIC in series [1] (Enterococcus hirae, ATCC10541, read-out: Antimicrobial Activity) lay in the range of 0.02 to 0.2 µM (≈ 0.0333 to 0.333 µg/mL). The compound further gave an EC50 in series [2] of 1 to 10 µM. In addition, at purified human PRX3, the “PRX3 Inhibition (Crosslink + Mono-adduct)” value was “++ (50-90%)”.

One may read the EC50 as the concentration at which the effect is half-maximal. The low end stands for an effect from little substance, the high end for a need for much substance.
